# Measurements taken from patent US8076346B2 (priority 2000, dated 2011).
# How the values were obtained:
# Format in all cases: in vivo
# [1] = Brain concentration of DPB after oral DPB or NaDPB and IV NaDPB in Sprague-Dawley rats; conditions: rat, in vivo
# Procedure: In this study, we measured the brain concentration of DPB. Brains were collected as soon as possible after euthanasia from each rat. They were stored in a freezer at −80° C. prior to determination of DPB brain tissue concentrations. Table 6 summarizes the brain concentrations of DPB after oral administration of DPB and sodium salt of DPB in Sprague-Dawley rats.
# [2] = Pharmacokinetics of DPB after oral DPB or NaDPB and IV NaDPB in Beagle dogs; conditions: for AUC(0-t): Beagle, 75 mg/kg
# Procedure: (§1) In accordance with the present invention, pharmacokinetic parameters were calculated using standard non-compartmental methods, as implemented in WinNonlin™ 4.0.1. […] The mean, SD and CV (%) were used to calculate the AUC0-t (μg·h/mL), C. (μg/ml) (the maximum observed concentration), Tmax (hours) (the time to reach that peak concentration) and Kel (the elimination rate constant) for each animal and each analyte.
# (§2) AUC0-t was calculated using the linear trapezoidal rule, which employs an approximate integration formula. The area of each trapezoid was calculated, and the sum of all the areas of all the trapezoids yielded an estimate of the true area under the curve. (See, Gibaldi et al. Pharmacokinetics. 2nd Ed. Marcel Dekker, Inc., 1982; Yeh et al., A comparison of numerical integrating algorithms by trapezoidal, lagrange, and spline approximations. J. Pharmacokinet Biopharm. 6: 79 (1978), the disclosure of which is herein incorporated by reference.) Cmax and Tmax were then determined for each concentration vs. time profile. Elimination rate constant (Kel) was calculated using regression analyses on the natural log (ln) of plasma concentration values (y) versus time (x).
# We examined the delivery of DPB to the vascular compartment by administrating directly DPB and compared it with the sodium salt of DPB in dogs. This study compared the pharmacokinetics of DPB after oral administration of a single dose of DPB (75 mg/kg) or sodium salt of DPB (75 mg/kg) in Beagle dogs. Twenty-eight Beagle dogs were administered DPB and sodium salt of DPB by a single oral gavage (n=24). Blood samples were obtained pre-dose and 0.5, 1, 2, 3, 4, 6, 12, 18, 24, 36 and 48 hours after dosing. DPB was quantified in plasma using HPLC (LLOQ=0.25 μg/mL).
# (§3) We calculated AUC0-t for DPB at various times (24, 36 and 48 hours) after oral administrations of DPB and sodium salt of DPB.
# [3] = Pharmacokinetics of DPB after oral DPB or NaDPB and IV NaDPB in Sprague-Dawley rats; conditions: for AUC(0-t): Sprague-Dawley, 150 mg/kg; for AUC(0-t) / Cmax / Tmax / half-life / bioavailability: rat, in vivo; for bioavailability: read-out: F (absolute bioavailability)
# Procedure: as §1, §2
# We examined the delivery of DPB to the vascular compartment by administrating directly DPB and compared it with the sodium salt of DPB. This study compared the pharmacokinetics of DPB after oral administration of DPB (150 mg/kg) and sodium salt of DPB (150 mg/kg) in rats. Fifty-four rats were administered DPB and sodium salt of DPB by a single oral gavage (n=54). Blood samples were obtained (approximately 0.5 mL each) were collected following each treatment from animal via the jugular vein. Blood samplings from groups of 3 rats/sex/time point were collected at various times after dosing, in order to provide the complete time-points of pre-dose, 0, 0.5, 1, 2, 3, 4, 6, 12, 18, 24, 36 and 48 hours after dosing. Each blood sample was collected into a tube containing lithium heparin and the samples were spun in a refrigerated centrifuge. The resultant plasma was stored at −80° C. prior to analysis. DPB was quantified in plasma using HPLC (LLOQ=0.25 μg/mL).
# as §3
# [4] = dog, in vivo, IV infusion 75 mg/kg, analyte DPB in plasma
# [5] = dog, in vivo, oral 75 mg/kg, analyte DPB in plasma
# [6] = oral 75 mg/kg, relative to oral DPB free acid
# [7] = Sprague-Dawley rats, female, IV infusion 150 mg/kg, analyte DPB in plasma
# [8] = Sprague-Dawley rats, female, oral 150 mg/kg, analyte DPB in plasma
# [9] = Sprague-Dawley rats, male, IV infusion 150 mg/kg, analyte DPB in plasma
# [10] = Sprague-Dawley rats, male, oral 150 mg/kg, analyte DPB in plasma
compound,measurement,setting,value
"O=C1NC(=O)C(c2ccccc2)(c2ccccc2)C(=O)N1.[Na] [NaDPB, sodium 5,5-diphenyl barbiturate]",concentration at 18 h,"[1]; female, IV infusion 150 mg/kg",36100 ng/g
same,concentration at 24 h,"[1]; female, IV infusion 150 mg/kg",40700 ng/g
same,concentration at 36 h,"[1]; female, IV infusion 150 mg/kg",21900 ng/g
same,concentration at 24 h,"[1]; female, oral 150 mg/kg",25800 ng/g
same,concentration at 36 h,"[1]; female, oral 150 mg/kg",28400 ng/g
same,concentration at 48 h,"[1]; female, oral 150 mg/kg",14900 ng/g
same,concentration at 18 h,"[1]; male, IV infusion 150 mg/kg",41200 ng/g
same,concentration at 24 h,"[1]; male, IV infusion 150 mg/kg",35600 ng/g
same,concentration at 36 h,"[1]; male, IV infusion 150 mg/kg",27500 ng/g
same,concentration at 24 h,"[1]; male, oral 150 mg/kg",29900 ng/g
same,concentration at 36 h,"[1]; male, oral 150 mg/kg",23600 ng/g
same,concentration at 48 h,"[1]; male, oral 150 mg/kg",9460 ng/g
same,AUC(0-t),"[2]; dog, in vivo, iv, IV infusion 75 mg/kg, analyte DPB in plasma, read-out: AUC0-t",1570 µg·h/mL
same,AUC(0-t),"[2]; dog, in vivo, iv, IV infusion 75 mg/kg, analyte DPB, read-out: AUC0-24",1410 µg·h/mL
same,AUC(0-t),"[2]; dog, in vivo, iv, IV infusion 75 mg/kg, analyte DPB, read-out: AUC0-36",1600 µg·h/mL
same,AUC(0-t),"[2]; dog, in vivo, iv, IV infusion 75 mg/kg, analyte DPB, read-out: AUC0-48",1620 µg·h/mL
same,AUC(0-t),"[2]; dog, in vivo, po, oral 75 mg/kg, analyte DPB in plasma, read-out: AUC0-t",883 µg·h/mL
same,AUC(0-t),"[2]; dog, in vivo, po, oral 75 mg/kg, analyte DPB, read-out: AUC0-24",883 µg·h/mL
same,AUC(0-t),"[2]; dog, in vivo, po, oral 75 mg/kg, analyte DPB, read-out: AUC0-36",962 µg·h/mL
same,AUC(0-t),"[2]; dog, in vivo, po, oral 75 mg/kg, analyte DPB, read-out: AUC0-48",962 µg·h/mL
same,Cmax,[2]; [4],95.7 µg/mL
same,Tmax,[2]; [4],0.5 h
same,half-life,[2]; [4],6 h
same,bioavailability,"[2]; dog, in vivo, oral 75 mg/kg vs IV 75 mg/kg, read-out: absolute bioavailability of DPB",~58%
same,Cmax,[2]; [5],54.2 µg/mL
same,Tmax,[2]; [5],7.8 h
same,half-life,[2]; [5],5.9 h
same,"AUC0-t for DPB, increase versus oral DPB",[2]; [6],~4 fold
same,"Cmax for DPB, increase versus oral DPB",[2]; [6],~3 fold
same,"AUC0-t for DPB, increase versus oral DPB","[3]; Sprague-Dawley rats, female, oral 150 mg/kg, relative to oral DPB free acid",~2 fold
same,AUC(0-t),"[3]; female, iv, Sprague-Dawley rats, female, IV infusion 150 mg/kg, analyte DPB in plasma, read-out: AUC0-t",4330 µg·h/mL
same,AUC(0-t),"[3]; female, iv, female, IV infusion 150 mg/kg, analyte DPB, read-out: AUC0-36",4760 µg·h/mL
same,AUC(0-t),"[3]; female, po, Sprague-Dawley rats, female, oral 150 mg/kg, analyte DPB in plasma, read-out: AUC0-t",4040 µg·h/mL
same,AUC(0-t),"[3]; female, po, female, oral 150 mg/kg, analyte DPB, read-out: AUC0-36",3130 µg·h/mL
same,AUC(0-t),"[3]; female, po, female, oral 150 mg/kg, analyte DPB, read-out: AUC0-48",4040 µg·h/mL
same,AUC(0-t),"[3]; male, iv, Sprague-Dawley rats, male, IV infusion 150 mg/kg, analyte DPB in plasma, read-out: AUC0-t",4030 µg·h/mL
same,AUC(0-t),"[3]; male, iv, male, IV infusion 150 mg/kg, analyte DPB, read-out: AUC0-36",4610 µg·h/mL
same,AUC(0-t),"[3]; male, iv, male, IV infusion 150 mg/kg, analyte DPB, read-out: AUC0-48",5690 µg·h/mL
same,AUC(0-t),"[3]; male, po, Sprague-Dawley rats, male, oral 150 mg/kg, analyte DPB in plasma, read-out: AUC0-t",3410 µg·h/mL
same,AUC(0-t),"[3]; male, po, male, oral 150 mg/kg, analyte DPB, read-out: AUC0-36",2720 µg·h/mL
same,AUC(0-t),"[3]; male, po, male, oral 150 mg/kg, analyte DPB, read-out: AUC0-48",3410 µg·h/mL
same,Cmax,[3]; [7],174 µg/mL
same,Tmax,[3]; [7],2 h
same,half-life,[3]; [7],26.8 h
same,Cmax,[3]; [8],104 µg/mL
same,Tmax,[3]; [8],12 h
same,half-life,[3]; [8],32.9 h
same,bioavailability,"[3]; Sprague-Dawley rats, female, oral 150 mg/kg, analyte DPB",87.7%
same,Cmax,[3]; [9],184 µg/mL
same,Tmax,[3]; [9],1 h
same,half-life,[3]; [9],24.2 h
same,Cmax,[3]; [10],86.9 µg/mL
same,Tmax,[3]; [10],18 h
same,half-life,[3]; [10],17.6 h
same,bioavailability,"[3]; Sprague-Dawley rats, male, oral 150 mg/kg, analyte DPB",70.6%
